The supplement of paper PMC8617591

How the values were obtained:
[1] = test system: Mycobacterium tuberculosis Erdman (autoluminescent); assay: total FIC50 (Loewe) at 50% inhibition, three-drug combination (log2); higher = more antagonistic
Method: (§1)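 DiaMOND equipotent three-drug combination dose responses (10 doses, 1.5- or 2-fold spacing, centred on IC90) against autoluminescent M. tuberculosis Erdman in 8 in vitro models. Read-out is OD600, or luminescence for the intracellular and dormancy models, normalised to untreated wells. Hill-fit Einf, AUC25 and GRinf are potency metrics; FIC50 and FIC90 are total Loewe fractional inhibitory concentrations as log2 (negative = synergy).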

[2] = test system: Mycobacterium tuberculosis Erdman (autoluminescent); assay: total FIC90 (Loewe) at 90% inhibition, three-drug combination (log2); higher = more antagonistic
Method: as §1

[3] = test system: Mycobacterium tuberculosis Erdman (autoluminescent); assay: AUC25, normalised area under dose response up to IC25 (three-drug combination) (fraction (0-1)); higher = more potent at low dose
Method: as §1

[4] = test system: Mycobacterium tuberculosis Erdman (autoluminescent); assay: Einf, fitted maximum growth inhibition of three-drug combination (fraction); higher = stronger maximal inhibition
Method: as §1

[5] = test system: Mycobacterium tuberculosis Erdman (autoluminescent); assay: GRinf, maximum normalised growth rate inhibition (three-drug combination) (unitless (-1 to 1)); higher = less effect (negative = killing)
Method: as §1

CC(=O)NC[C@H]1CN(c2ccc(N3CCOCC3)c(F)c2)C(=O)O1 [linezolid] + O=[N+]([O-])c1cn2c(n1)OC[C@@H](OCc1ccc(OC(F)(F)F)cc1)C2 [pretomanid] + CO[C@H]1/C=C/O[C@@]2(C)Oc3c(C)c(O)c4c(O)c(c(/C=N/N5CCN(C6CCCC6)CC5)c(O)c4c3C2=O)NC(=O)/C(C)=C\C=C\[C@H](C)[C@H](O)[C@@H](C)[C@@H](O)[C@@H](C)[C@H](OC(C)=O)[C@@H]1C [rifapentine]
Settings	AUC25, [3]	Einf, [4]	GRinf, [5]	total FIC50, [1]	total FIC90, [2]
in vitro model: acidic pH 5.7, time point: constant (~7 days, model-specific)	0.0833	0.887	0.0321	0.893	–
in vitro model: acidic pH 5.7, time point: terminal (~4-5 doublings, model-specific)	0.0609	0.978	0.00722	0.838	0.632
in vitro model: intracellular J774, time point: constant = terminal	–	0.953	-0.276	–	0.646

Settings	AUC25, [3]	Einf, [4]	GRinf, [5]	total FIC50, [1]	total FIC90, [2]
in vitro model: butyrate, time point: constant (~7 days, model-specific)	0.0937	0.91	-0.0425	0.403	0.09
in vitro model: butyrate, time point: terminal (~4-5 doublings, model-specific)	0.0716	0.955	0.0296	0.296	0.336
in vitro model: cholesterol 0.05 mM, time point: constant (~7 days, model-specific)	0.142	0.677	-0.167	0.533	–
in vitro model: cholesterol 0.05 mM, time point: terminal (~4-5 doublings, model-specific)	0.127	0.89	-0.198	0.278	0.6
in vitro model: cholesterol-high 0.2 mM, time point: constant (~7 days, model-specific)	0.0858	0.912	-0.159	0.139	0.124
in vitro model: cholesterol-high 0.2 mM, time point: terminal (~4-5 doublings, model-specific)	0.095	1	-0.71	0.348	0.313
in vitro model: dormancy (butyrate + nitrate, low O2), time point: constant (~7 days, model-specific)	0.0497	0.894	0.223	0.906	0.707
in vitro model: dormancy (butyrate + nitrate, low O2), time point: terminal (~4-5 doublings, model-specific)	0.0403	0.979	-0.0764	0.858	0.899
in vitro model: standard 7H9 glycerol, time point: constant = terminal	0.0904	0.932	-0.132	0.424	0.754
in vitro model: valerate, time point: constant (~7 days, model-specific)	0.159	0.913	-0.446	-1.08	–
in vitro model: valerate, time point: terminal (~4-5 doublings, model-specific)	0.125	0.966	-0.15	-0.336	1.3
